# Assay results from ChEMBL document CHEMBL5291721, “A preclinical secondary pharmacology resource illuminates target-adverse drug reaction associations of marketed drugs” (Nat Commun, 2023).
# Tests used:
# [1] = molecular target: T1, Alpha-1A adrenergic receptor (Homo sapiens, UniProt P35348); type: functional, cell-based
# T1 sequence (P35348 whole entry): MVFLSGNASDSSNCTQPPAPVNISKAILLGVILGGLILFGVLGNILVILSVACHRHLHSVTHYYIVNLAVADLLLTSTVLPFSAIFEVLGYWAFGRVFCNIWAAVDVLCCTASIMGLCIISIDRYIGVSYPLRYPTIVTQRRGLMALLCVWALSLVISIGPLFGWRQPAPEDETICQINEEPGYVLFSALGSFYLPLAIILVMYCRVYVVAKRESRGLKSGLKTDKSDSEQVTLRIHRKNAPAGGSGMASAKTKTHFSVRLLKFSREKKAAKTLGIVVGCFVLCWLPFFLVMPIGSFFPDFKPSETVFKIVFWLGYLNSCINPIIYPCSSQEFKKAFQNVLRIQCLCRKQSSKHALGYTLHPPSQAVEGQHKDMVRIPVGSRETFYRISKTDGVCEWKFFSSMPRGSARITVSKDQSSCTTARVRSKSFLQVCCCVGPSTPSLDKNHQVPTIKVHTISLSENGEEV
# [2] = molecular target: T2, Neuropeptide Y receptor type 1 (Homo sapiens, UniProt P25929)
# T2 sequence (P25929 whole entry): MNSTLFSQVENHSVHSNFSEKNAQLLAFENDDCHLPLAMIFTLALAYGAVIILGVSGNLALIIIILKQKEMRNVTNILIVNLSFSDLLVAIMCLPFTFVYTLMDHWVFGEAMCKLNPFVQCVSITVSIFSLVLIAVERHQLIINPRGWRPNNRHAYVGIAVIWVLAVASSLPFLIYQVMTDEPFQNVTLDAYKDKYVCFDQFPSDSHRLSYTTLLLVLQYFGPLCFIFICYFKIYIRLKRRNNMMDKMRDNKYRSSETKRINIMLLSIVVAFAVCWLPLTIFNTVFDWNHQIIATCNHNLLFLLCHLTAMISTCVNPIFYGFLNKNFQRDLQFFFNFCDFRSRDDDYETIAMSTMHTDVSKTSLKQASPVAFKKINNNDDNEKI
# Progesterone receptor = molecular target: T3, Progesterone receptor (Homo sapiens, UniProt P06401); type: functional
# T3 sequence (P06401 whole entry): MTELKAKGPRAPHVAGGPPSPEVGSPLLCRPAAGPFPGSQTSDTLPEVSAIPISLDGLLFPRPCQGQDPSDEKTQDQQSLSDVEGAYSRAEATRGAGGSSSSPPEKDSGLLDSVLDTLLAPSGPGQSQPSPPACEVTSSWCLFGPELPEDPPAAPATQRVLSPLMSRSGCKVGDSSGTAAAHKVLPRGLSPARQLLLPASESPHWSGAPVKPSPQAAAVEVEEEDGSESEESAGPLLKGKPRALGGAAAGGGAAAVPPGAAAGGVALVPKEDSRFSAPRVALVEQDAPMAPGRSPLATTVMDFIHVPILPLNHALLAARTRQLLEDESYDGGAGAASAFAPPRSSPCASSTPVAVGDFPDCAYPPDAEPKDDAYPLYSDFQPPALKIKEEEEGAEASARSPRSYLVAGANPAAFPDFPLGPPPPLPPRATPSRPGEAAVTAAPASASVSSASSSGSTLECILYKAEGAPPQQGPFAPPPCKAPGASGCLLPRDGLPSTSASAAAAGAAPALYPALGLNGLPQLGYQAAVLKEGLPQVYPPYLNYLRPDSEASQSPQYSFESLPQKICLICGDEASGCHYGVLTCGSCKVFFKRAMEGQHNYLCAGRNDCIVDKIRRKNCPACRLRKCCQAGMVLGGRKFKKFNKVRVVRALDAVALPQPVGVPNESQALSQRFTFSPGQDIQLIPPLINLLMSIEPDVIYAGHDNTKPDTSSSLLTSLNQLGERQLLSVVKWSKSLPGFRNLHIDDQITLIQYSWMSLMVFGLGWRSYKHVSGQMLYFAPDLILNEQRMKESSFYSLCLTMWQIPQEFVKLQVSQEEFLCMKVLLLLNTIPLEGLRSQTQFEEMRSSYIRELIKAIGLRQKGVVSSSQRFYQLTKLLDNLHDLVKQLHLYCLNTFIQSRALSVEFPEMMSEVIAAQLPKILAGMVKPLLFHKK
# [3] = molecular target: 3',5'-cyclic-AMP phosphodiesterase 4D (Homo sapiens, UniProt Q08499); type: functional
# Chain of 3',5'-cyclic-AMP phosphodiesterase 4D (Q08499 whole entry): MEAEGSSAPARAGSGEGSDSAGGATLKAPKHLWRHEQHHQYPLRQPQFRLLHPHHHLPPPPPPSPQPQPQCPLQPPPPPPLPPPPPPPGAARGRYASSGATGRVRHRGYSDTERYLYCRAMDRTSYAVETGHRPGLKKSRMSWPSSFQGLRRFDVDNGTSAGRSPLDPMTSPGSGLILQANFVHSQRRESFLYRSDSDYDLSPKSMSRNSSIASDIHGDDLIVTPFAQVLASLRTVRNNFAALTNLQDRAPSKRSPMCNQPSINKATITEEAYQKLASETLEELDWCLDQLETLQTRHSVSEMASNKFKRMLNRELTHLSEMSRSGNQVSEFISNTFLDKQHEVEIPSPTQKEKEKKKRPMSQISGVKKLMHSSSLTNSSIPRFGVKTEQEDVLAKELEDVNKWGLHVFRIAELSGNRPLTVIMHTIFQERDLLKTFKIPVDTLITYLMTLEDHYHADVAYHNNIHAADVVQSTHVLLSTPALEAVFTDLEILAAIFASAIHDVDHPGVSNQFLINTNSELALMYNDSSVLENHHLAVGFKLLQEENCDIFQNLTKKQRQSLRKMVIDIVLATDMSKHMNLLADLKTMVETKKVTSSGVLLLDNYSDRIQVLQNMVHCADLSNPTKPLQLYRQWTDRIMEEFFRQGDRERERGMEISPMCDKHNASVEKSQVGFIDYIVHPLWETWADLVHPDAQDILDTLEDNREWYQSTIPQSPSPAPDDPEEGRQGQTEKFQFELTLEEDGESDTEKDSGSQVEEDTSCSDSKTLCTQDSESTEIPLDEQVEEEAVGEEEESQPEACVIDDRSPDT
# D(1A) dopamine receptor = D(1A) dopamine receptor (Homo sapiens, UniProt P21728); type: functional, cell-based
# Chain of D(1A) dopamine receptor (P21728 whole entry): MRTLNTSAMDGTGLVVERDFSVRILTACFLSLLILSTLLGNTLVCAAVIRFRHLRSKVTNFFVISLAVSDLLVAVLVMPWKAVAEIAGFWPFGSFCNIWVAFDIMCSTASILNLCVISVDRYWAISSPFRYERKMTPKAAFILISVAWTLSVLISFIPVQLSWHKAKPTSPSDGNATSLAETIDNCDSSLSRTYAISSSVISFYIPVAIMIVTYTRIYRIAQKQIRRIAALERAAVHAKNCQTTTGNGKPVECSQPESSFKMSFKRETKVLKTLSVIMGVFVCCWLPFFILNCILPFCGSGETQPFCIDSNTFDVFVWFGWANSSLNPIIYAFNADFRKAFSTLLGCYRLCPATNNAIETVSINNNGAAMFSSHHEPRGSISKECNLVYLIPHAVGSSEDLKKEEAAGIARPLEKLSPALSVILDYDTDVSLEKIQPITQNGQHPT
# [4] = molecular target: T4, Amine oxidase [flavin-containing] A (Homo sapiens, UniProt P21397); type: functional
# T4 sequence (P21397 whole entry): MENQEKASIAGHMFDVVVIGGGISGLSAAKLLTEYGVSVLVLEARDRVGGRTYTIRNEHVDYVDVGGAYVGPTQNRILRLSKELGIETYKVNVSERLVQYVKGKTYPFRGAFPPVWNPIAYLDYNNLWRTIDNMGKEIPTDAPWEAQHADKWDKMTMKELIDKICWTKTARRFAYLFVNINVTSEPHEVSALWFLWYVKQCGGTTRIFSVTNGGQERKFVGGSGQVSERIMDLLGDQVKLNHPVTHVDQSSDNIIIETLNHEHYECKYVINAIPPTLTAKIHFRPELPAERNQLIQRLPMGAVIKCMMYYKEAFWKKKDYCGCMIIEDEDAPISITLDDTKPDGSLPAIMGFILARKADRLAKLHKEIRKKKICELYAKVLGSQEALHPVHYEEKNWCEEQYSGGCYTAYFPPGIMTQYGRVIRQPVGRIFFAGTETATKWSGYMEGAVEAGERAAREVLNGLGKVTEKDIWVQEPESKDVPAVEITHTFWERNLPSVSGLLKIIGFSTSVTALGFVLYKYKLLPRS
# Vasopressin V2 receptor = Vasopressin V2 receptor (Homo sapiens, UniProt P30518)
# Chain of Vasopressin V2 receptor (P30518 whole entry): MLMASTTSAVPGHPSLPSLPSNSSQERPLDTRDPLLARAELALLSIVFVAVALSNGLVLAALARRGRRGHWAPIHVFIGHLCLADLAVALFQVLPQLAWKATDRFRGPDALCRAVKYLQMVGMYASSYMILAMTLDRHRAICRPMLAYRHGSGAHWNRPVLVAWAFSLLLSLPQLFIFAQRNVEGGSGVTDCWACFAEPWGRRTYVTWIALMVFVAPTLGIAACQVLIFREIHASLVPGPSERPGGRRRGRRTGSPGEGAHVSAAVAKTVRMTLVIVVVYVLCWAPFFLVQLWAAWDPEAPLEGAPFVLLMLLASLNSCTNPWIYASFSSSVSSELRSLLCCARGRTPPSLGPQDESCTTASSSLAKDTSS
# [5] = molecular target: Sodium-dependent dopamine transporter (Homo sapiens, UniProt Q01959)
# Chain of Sodium-dependent dopamine transporter (Q01959 whole entry): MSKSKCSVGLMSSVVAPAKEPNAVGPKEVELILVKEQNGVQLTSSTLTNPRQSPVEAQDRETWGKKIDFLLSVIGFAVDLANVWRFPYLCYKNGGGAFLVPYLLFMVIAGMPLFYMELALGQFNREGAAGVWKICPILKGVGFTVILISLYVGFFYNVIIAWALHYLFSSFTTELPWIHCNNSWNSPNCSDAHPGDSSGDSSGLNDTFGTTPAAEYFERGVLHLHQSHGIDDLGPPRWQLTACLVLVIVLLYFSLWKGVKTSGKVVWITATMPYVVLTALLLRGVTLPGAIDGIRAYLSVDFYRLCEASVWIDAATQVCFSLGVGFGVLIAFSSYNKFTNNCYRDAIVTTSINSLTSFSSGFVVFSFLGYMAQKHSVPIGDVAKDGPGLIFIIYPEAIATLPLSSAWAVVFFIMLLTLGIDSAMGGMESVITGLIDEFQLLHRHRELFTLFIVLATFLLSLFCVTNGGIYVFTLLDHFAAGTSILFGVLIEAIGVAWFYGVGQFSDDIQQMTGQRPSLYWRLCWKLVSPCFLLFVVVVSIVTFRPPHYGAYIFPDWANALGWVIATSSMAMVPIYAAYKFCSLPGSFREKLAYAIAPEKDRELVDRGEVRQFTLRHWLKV
# Note: assay procedure not described here.
SMILES,AC50 [1] [µM],AC50 [2] [µM],AC50 (Progesterone receptor) [µM],AC50 [3] [µM],AC50 (D(1A) dopamine receptor) [µM],AC50 [4] [µM],AC50 (Vasopressin V2 receptor) [µM],AC50 [5] [µM]
Cc1cc2c(cc1S(N)(=O)=O)S(=O)(=O)CCC2,> 30,–,–,–,–,–,–,–
C[N+](C)(C)CCOP(=O)([O-])OC[C@H](O)CO,–,> 30,> 30,> 30,> 30,> 30,> 30,> 30
C[C@H](N[C@@H](CCc1ccccc1)C(=O)O)C(=O)N1Cc2ccccc2C[C@H]1C(=O)O,> 30,–,–,–,–,–,–,–
O=C(O)[C@@H]1C[C@@H](O)CN1,> 30,–,–,–,–,–,–,–
CN(C)C/C=C/C(=O)Nc1cc2c(Nc3ccc(F)c(Cl)c3)ncnc2cc1O[C@H]1CCOC1 [AFATINIB],–,> 30,> 30,> 30,> 30,> 30,> 30,23.2
CC1(C)S[C@@H]2[C@H](/N=C/N3CCCCCC3)C(=O)N2[C@H]1C(=O)O [AMDINOCILLIN],> 30,–,–,–,–,–,–,–
CC(=O)[C@]1(N)Cc2c(O)c3c(c(O)c2[C@@H](O[C@H]2C[C@H](O)[C@H](O)CO2)C1)C(=O)c1ccccc1C3=O [AMRUBICIN],> 3,–,–,–,–,–,–,–
NC(=O)[C@@H]1CC[C@@H]2CN1C(=O)N2OS(=O)(=O)O [AVIBACTAM],> 30,–,–,–,–,–,–,–
CC(=O)OC[C@H]1O[C@@H](n2ncc(=O)[nH]c2=O)[C@H](OC(C)=O)[C@@H]1OC(C)=O [AZARIBINE],> 30,–,–,–,–,–,–,–
CC1=C(C(=O)OC(C)C)C(c2cccc([N+](=O)[O-])c2)C(C(=O)OC2CN(C(c3ccccc3)c3ccccc3)C2)=C(N)N1 (configuration not stated) [AZELNIDIPINE],–,> 30,> 30,6.6,> 30,> 30,> 30,26
CC(C)(C)NC(=O)N[C@H](C(=O)N1C[C@H]2[C@@H]([C@H]1C(=O)NC(CC1CCC1)C(=O)C(N)=O)C2(C)C)C(C)(C)C (some centres not stated) [BOCEPREVIR],> 30,–,–,–,–,–,–,–
NC[C@H]1CC[C@H](C(=O)Oc2ccc(CCC(=O)O)cc2)CC1 [CETRAXATE],–,–,–,> 30,> 30,> 30,–,–
C=C1CC[C@H](O)C/C1=C/C=C1\CCC[C@]2(C)[C@@H]([C@H](C)CCCC(C)C)CC[C@@H]12 [CHOLECALCIFEROL],> 30,–,–,–,–,–,–,–
C[C@H](CCC(=O)O)[C@H]1CC[C@H]2[C@@H]3[C@H](O)C[C@@H]4C[C@H](O)CC[C@]4(C)[C@H]3C[C@H](O)[C@]12C [CHOLIC ACID],> 30,–,–,–,–,–,–,–
Cc1ncc2c(c1O)COC2c1ccc(Cl)cc1 (configuration not stated) [CICLETANINE],> 30,–,–,–,–,–,–,–
Cc1cn([C@H]2O[C@@H](CO)[C@H](O)[C@H]2F)c(=O)[nH]c1=O [CLEVUDINE],> 30,–,–,–,–,–,–,–
CC(=O)[C@H]1CC[C@H]2[C@@H]3C=CC4=CC(=O)CC[C@@]4(C)[C@@H]3CC[C@]12C [DYDROGESTERONE],29.2,–,–,–,–,–,–,–
CC(=O)O[C@H]1Cc2ccccc2N(C(N)=O)c2ccccc21 [ESLICARBAZEPINE ACETATE],> 30,–,–,–,–,–,–,–

SMILES,AC50 [1] [µM],AC50 [2] [µM],AC50 (Progesterone receptor) [µM],AC50 [3] [µM],AC50 (D(1A) dopamine receptor) [µM],AC50 [4] [µM],AC50 (Vasopressin V2 receptor) [µM],AC50 [5] [µM]
CC(O)(P(=O)(O)O)P(=O)(O)O [ETIDRONIC ACID],> 30,–,–,–,–,–,–,–
Cc1ccc(S(=O)(=O)NC(=O)NC2CCCCC2)cc1 [GLYCYCLAMIDE],> 30,–,–,–,–,–,–,–
CN1CCCN(C(c2ccccc2)c2ccc(Cl)cc2)CC1 (configuration not stated) [HOMOCHLORCYCLIZINE],2.89,–,–,–,–,–,–,–
CC(=O)OCC(=O)[C@@]1(O)CC[C@H]2[C@@H]3CCC4=CC(=O)CC[C@]4(C)[C@H]3[C@@H](O)C[C@@]21C [HYDROCORTISONE ACETATE],> 30,–,–,–,–,–,–,–
CNCCc1ccc(OC(=O)C(C)C)c(OC(=O)C(C)C)c1 [IBOPAMINE],–,> 30,> 30,> 30,0.0442,> 30,> 30,> 30
CC(COc1ccccc1)NC(C)C(O)c1ccc(O)cc1 (configuration not stated) [ISOXSUPRINE],1.04,–,–,–,–,–,–,–
CCOC(=O)C1=C(C)NC(C)=C(C(=O)OCC)C1c1ccccc1/C=C/C(=O)OC(C)(C)C [LACIDIPINE],–,> 30,> 30,12,> 30,> 30,> 30,> 30
O=C(CCC/C=C\C[C@@H]1[C@@H](CC[C@@H](O)CCc2ccccc2)[C@H](O)C[C@@H]1O)OCCCCO[N+](=O)[O-] [LATANOPROSTENE BUNOD],> 10,–,–,–,–,–,–,–
Cc1oc(=O)oc1COC(=O)[C@@H]1N2C(=O)[C@@H](NC(=O)[C@H](N)c3ccccc3)[C@H]2SC1(C)C [LENAMPICILLIN],24.5,–,–,–,–,–,–,–
COC(=O)C1=C(C)NC(C)=C(C(=O)OCCN2CCN(C(c3ccccc3)c3ccccc3)CC2)C1c1cccc([N+](=O)[O-])c1 (configuration not stated) [MANIDIPINE 6300],–,> 30,> 30,> 30,> 30,> 30,> 30,23
CC1(CCN2CCCCC2)C(=O)CCc2ccccc21 (configuration not stated) [NEPINALONE],> 30,–,–,–,–,–,–,–
OC[C@H]1O[C@@H](n2cnc3c2NC=NC[C@H]3O)C[C@@H]1O [PENTOSTATIN],–,> 30,> 30,> 30,> 30,> 30,> 30,> 30
Cc1cccc(C)c1NC(=O)CC12CCCN1CCC2 [PILSICAINIDE],–,> 30,> 30,> 30,> 30,> 30,> 30,> 30
CCCN1CC(NS(=O)(=O)N(CC)CC)CC2Cc3c(O)cccc3CC21 (configuration not stated) [QUINAGOLIDE],–,> 30,> 30,> 30,0.15,> 30,> 30,> 30
O=C1OC(OC(=O)c2cccnc2Nc2cccc(C(F)(F)F)c2)c2ccccc21 (configuration not stated) [TALNIFLUMATE],–,> 30,> 30,5.2,> 30,> 30,> 30,> 30
O=S1(=O)CCN(CN2CCS(=O)(=O)NC2)CN1 [TAUROLIDINE],–,–,> 30,> 30,> 30,> 30,–,> 30
CCOC(=O)c1c(CSc2ccccc2)n(C)c2cc(Br)c(O)c(CN(C)C)c12 [UMIFENOVIR],–,> 30,> 30,5.6,> 30,> 30,> 30,9.1
